From ChEMBL document CHEMBL1201862, “PubChem BioAssay data set” (2004)
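In this assay, cells in 96-well plates receive the compound at five concentrations for 48 hours. Endpoints are linearly interpolated between the surrounding concentrations. Here, GI50 denotes the concentration required for 50% inhibition of growth.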 Activity calls are given as the source filed them. No stated cut-off is given here; in the data, active = GI50 up to about 1.1 µM and inactive = higher.

Legend:
Assay in all cases: NCI-60 cell line screen, 48 h
[1] = system: SF-268
[2] = system: Malme-3M
[3] = system: HCC 2998
[4] = system: M14
[5] = system: A549
[6] = system: NCI-H460
[7] = system: M19-MEL
[8] = system: SK-MEL-28
[9] = system: COLO 205
[10] = system: TK-10
[11] = system: OVCAR-5
[12] = system: HL-60
[13] = system: IGROV-1
[14] = system: DLD-1
[15] = system: 786-0
[16] = system: U-251
[17] = system: SNB-78
[18] = system: HCT-116
[19] = system: SN12C
[20] = system: UO-31
[21] = system: MOLT-4
[22] = system: SW-620
[23] = system: HOP-92
[24] = system: SF-295
[25] = system: ACHN
[26] = system: SR
[27] = system: SK-MEL-2
[28] = system: LXFL 529
[29] = system: KM12
[30] = system: A498
[31] = system: SK-MEL-5
[32] = system: SNB-75
[33] = system: SNB-19
[34] = system: OVCAR-4
[35] = system: LOX IMVI
[36] = system: NCI-H226
[37] = system: OVCAR-3
[38] = system: NCI-H23
[39] = system: DMS-273
[40] = system: KM-20L2
[41] = system: OVCAR-8
[42] = system: XF498
[43] = system: RPMI-8226
[44] = system: CCRF-CEM
[45] = system: SK-OV-3
[46] = system: NCI-H522
[47] = system: CAKI-1
[48] = system: HOP-62
[49] = system: UACC-257
[50] = system: SF-539
[51] = system: HT-29
[52] = system: HCT-15
[53] = system: K562
[54] = system: UACC-62
[55] = system: DMS-114
[56] = system: EKVX

Measured: GI50

Cc1c(C(=O)CSc2nc3ccccc3[nH]2)c(=O)n(-c2ccccc2)n1C
> 100 µM: [52]
inactive: [1] > 100 µM | [2] 34.9 µM | [3] > 100 µM | [4] > 100 µM | [5] > 100 µM | [6] > 100 µM | [7] > 100 µM | [8] > 100 µM | [9] > 100 µM | [10] > 100 µM | [11] > 100 µM | [12] > 100 µM | [13] > 100 µM | [14] > 100 µM | [15] > 100 µM | [16] > 100 µM | [17] > 100 µM | [18] > 100 µM | [19] > 100 µM | [20] > 100 µM | [21] > 100 µM | [22] > 100 µM | [23] > 100 µM | [24] > 100 µM | [25] > 100 µM | [26] > 100 µM | [27] > 100 µM | [28] > 100 µM | [29] > 100 µM | [30] > 100 µM | [31] > 100 µM | [32] > 100 µM | [33] > 100 µM | [34] > 100 µM | [35] > 100 µM | [36] > 100 µM | [37] 41.1 µM | [38] > 100 µM | [39] > 100 µM | [40] > 100 µM | [41] > 100 µM | [42] > 100 µM | [43] > 100 µM | [44] > 100 µM | [45] > 100 µM | [46] > 100 µM | [47] > 100 µM | [48] > 100 µM | [49] > 100 µM | [50] > 100 µM | [51] > 100 µM

O=C(Nc1nnn[nH]1)c1nc(O)cc(-c2ccccc2)n1
inactive: [1] > 100 µM | [53] > 100 µM | [2] > 100 µM | [3] > 100 µM | [4] > 100 µM | [5] > 100 µM | [6] > 100 µM | [7] > 100 µM | [8] > 100 µM | [9] > 100 µM | [10] > 100 µM | [11] > 100 µM | [12] > 100 µM | [13] > 100 µM | [14] > 100 µM | [15] > 100 µM | [16] > 100 µM | [17] > 100 µM | [18] > 100 µM | [19] > 100 µM | [20] > 100 µM | [21] > 100 µM | [22] > 100 µM | [23] > 100 µM | [24] > 100 µM | [25] > 100 µM | [26] > 100 µM | [27] > 100 µM | [28] > 100 µM | [29] > 100 µM | [30] > 100 µM | [31] > 100 µM | [32] > 100 µM | [33] > 100 µM | [34] > 100 µM | [54] > 100 µM | [36] > 100 µM | [37] > 100 µM | [38] > 100 µM | [40] > 100 µM | [41] > 100 µM | [42] > 100 µM | [43] > 100 µM | [44] > 100 µM | [45] > 100 µM | [46] > 100 µM | [47] > 100 µM | [48] > 100 µM | [55] > 100 µM | [49] > 100 µM | [56] > 100 µM | [51] > 100 µM
